# Measurements published in patent US8173144B2, “Administration of urea compounds for combating signs of cutaneous aging” (L'Oreal, priority 2004, dated 2012).
# Tested on: acid proteases of the SC (stratum corneum)
# Test: Activation of acid proteases of the stratum corneum (Enzchek fluorimetry, Bodipy FL casein substrate)
# Format: biochemical
# Experimental: The property of activating certain acid proteases of the SC (stratum corneum) is evaluated. This activity is measured by virtue of a quantitative determination by fluorimetry using the Enzchek kit (Molecular Probes). This protocol uses a Bodipy FL casein substrate which releases fluorescence when it is hydrolyzed. The fluorescence released is directly proportional to the protease activity. It is read directly in a 96-well plate with a spectrofluorimeter at 750 V at 485 nm in excitation and 535 nm in emission.
# The molecules are prepared at 0, 1, 2 and 4M in a 0.1M; pH 5.0; acetate buffer.
# An enzyme extract is prepared from acetone powders.
# 2 ml of PBS buffer+0.1% of Triton X100 are brought into contact for 1 h in crushed ice with 200 mg of stratum corneum acetone powders. The mixture is subsequently ground in a Potter homogenizer and then centrifuged at 15 000 g for 10 min at 4° C. The supernatant is collected. The Enzchek substrate, diluted to 1/200, is incorporated in each solution comprising the molecules. The assays are repeated three times.
# The reaction mixture is prepared directly in a white plate.
# 10 μl of enzyme extract are added to 200 μl of solution comprising the substrate at 0, 1, 2 or 4M. The readings are carried out at t0, t 2h, t 16h and t 24h.
# [1] = 1 and 2M in 0.1M acetate buffer pH 5.0, readings t0, t 2h, t 16h, t 24h
Compound,acid protease activity (fluorescence) with respect to the control [1],"acid protease activity (fluorescence) with respect to the control (4M in 0.1M acetate buffer pH 5.0, whatever the time studied)"
"NC(=O)NCCO [N-(2-hydroxethyl)urea, N-(2-hydroxyethyl)urea]",significant increase in the activity,marked decrease in the activity
"NC(N)=O [Urea, urea]",slightly activating effect on the acid proteases up to two hours,–
